Test systems include CAKI-1 renal; CCRF-CEM leukemia; M14 melanoma; NCI-H460 lung; SF-268 CNS; TK-10 renal; UACC-257 melanoma; UO-31 renal; KM12 colon; PC-3 prostate.
Common to all, as to assay: NCI anticancer screen, dose series, 48 h

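Results reflect a 48-hour exposure of cells in 96-well plates to compound at five concentrations. GI50 marks 50% less growth. TGI: total growth inhibition.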 Bounds are passed on as bounds.

With `CCCCn1c(-c2ccccc2)cs/c1=N\N=C1C=C(C(C)(C)C)C(=O)C(C(C)(C)C)=C1`, the TGI in the assay with CAKI-1 renal, with CCRF-CEM leukemia, in the assay with M14 melanoma, with NCI-H460 lung, in the assay on SF-268 CNS and with TK-10 renal was > 100 µM throughout. In addition, the TGI with UACC-257 melanoma and with UO-31 renal was > 100 µM throughout.
For `O=[N+]([O-])c1ccc(CSc2nn(Cc3ccc([N+](=O)[O-])cc3)cc3ncnc2-3)cc1`, the TGI in the assay with CAKI-1 renal, in the assay with KM12 colon, in the assay on M14 melanoma, in the assay on PC-3 prostate, in the assay with TK-10 renal and in the assay on UACC-257 melanoma was > 100 µM each time. The same compound came in with a TGI in the assay with UO-31 renal of 61.2 µM.
Regarding `CC(=O)Nc1ccc(-c2nnc(SCC(=O)Nc3cccc(C)c3)o2)cc1`, the TGI was 30.4 µM in the assay with CAKI-1 renal; > 100 µM in the assay on CCRF-CEM leukemia; 22.6 µM with KM12 colon; 25.6 µM in the assay with M14 melanoma; 28.6 µM in the assay on NCI-H460 lung; > 100 µM in the assay with SF-268 CNS. The TGI was determined as 29.2 µM with TK-10 renal, 24.9 µM with UACC-257 melanoma and 26.3 µM in the assay on UO-31 renal.
For the compound `O=C(NN1C(=O)C(Cl)C1c1cccc(O)c1)c1ccccc1O` (stereo not given), the TGI in the assay on CCRF-CEM leukemia, in the assay on KM12 colon, in the assay with M14 melanoma, in the assay on NCI-H460 lung, in the assay with SF-268 CNS and in the assay on TK-10 renal was > 100 µM throughout. Also, the TGI in the assay with UACC-257 melanoma and with UO-31 renal was > 100 µM each time.
In the case of `COc1cc(C2CC(C)(N3CCOCC3)Oc3cc4c(cc32)OCO4)cc(OC)c1OC` (stereo not given), the TGI was 72.1 µM with CAKI-1 renal; > 100 µM in the assay with KM12 colon; > 100 µM in the assay on M14 melanoma; > 100 µM with NCI-H460 lung; > 100 µM in the assay with PC-3 prostate; > 100 µM in the assay on SF-268 CNS. Moreover, the TGI in the assay on UACC-257 melanoma and in the assay with UO-31 renal was > 100 µM each time.
`CC1(CO)C(O)CCC2(C)C1CCC1CC3CC12CCC3(O)CO` (stereo not given): the TGI in the assay with CAKI-1 renal, in the assay with CCRF-CEM leukemia, with KM12 colon, with NCI-H460 lung, in the assay on SF-268 CNS and in the assay with UACC-257 melanoma was > 100 µM in each case. This compound also showed a TGI in the assay on UO-31 renal of 98.8 µM.
As to `O=S(=O)(O)c1ccc2c(N=Nc3cccc4ccccc34)c(O)ccc2c1`, the TGI in the assay on CAKI-1 renal, with CCRF-CEM leukemia, in the assay on KM12 colon, in the assay on M14 melanoma, in the assay on PC-3 prostate and in the assay on SF-268 CNS was > 100 µM throughout. Further, the TGI with TK-10 renal, in the assay with UACC-257 melanoma and in the assay with UO-31 renal was > 100 µM each time.
Regarding `c1ccc2c(c1)nnn2CNc1ccc(N2CCCCC2)cc1`, the TGI with CCRF-CEM leukemia, in the assay on KM12 colon, in the assay with M14 melanoma, in the assay with NCI-H460 lung, in the assay with SF-268 CNS and in the assay with TK-10 renal was > 100 µM throughout. Besides, the TGI with UACC-257 melanoma and in the assay on UO-31 renal was > 100 µM each time.
With `CN1C(=O)N(C)C2(CCN(CC(CC3OCCO3)c3ccc(F)cc3)CC2)C1=O` (stereo not given), the TGI in the assay on CAKI-1 renal, in the assay on CCRF-CEM leukemia, with M14 melanoma, in the assay on PC-3 prostate, in the assay on SF-268 CNS and in the assay on TK-10 renal was > 100 µM each time. The TGI in the assay with UACC-257 melanoma and in the assay on UO-31 renal was > 100 µM throughout.
Turning to `CC1=C(C(=O)NNC(=O)Cc2ccccc2)CC(C(=O)NNC(=O)Cc2ccccc2)=C(C)N1`, the TGI in the assay on CAKI-1 renal, in the assay on KM12 colon, in the assay on M14 melanoma, with NCI-H460 lung, with SF-268 CNS and with TK-10 renal was > 100 µM in each case. Further, the TGI in the assay on UACC-257 melanoma and in the assay on UO-31 renal was > 100 µM each time.
Regarding `CN(C)c1ccc(/C=C/C(=O)c2cc(C(C)(C)C)c(O)c(C(C)(C)C)c2)cc1`, the TGI in the assay on CAKI-1 renal is > 58.5 µM; with CCRF-CEM leukemia it was > 25.7 µM; with KM12 colon it was > 25.7 µM; in the assay with M14 melanoma it was > 51.7 µM; in the assay with NCI-H460 lung, 2.39 µM; in the assay on PC-3 prostate it was > 100 µM. Moreover, the TGI in the assay on SF-268 CNS was > 52.1 µM; with TK-10 renal, > 43.1 µM; in the assay on UO-31 renal, > 100 µM.
Turning to `O=C([CH-]C(=O)c1ccccc1)c1ccccc1.[C-]#[O+].[C-]#[O+].[Ir]`, the GI50 in the assay with CAKI-1 renal is 79.1 µM; in the assay with KM12 colon it was 66.1 µM; in the assay on M14 melanoma, 54.3 µM; in the assay with NCI-H460 lung, 39.7 µM; in the assay on TK-10 renal, > 100 µM; in the assay with UACC-257 melanoma, > 100 µM. For the same compound, the GI50 in the assay with UO-31 renal was 45.2 µM. Further, the TGI in the assay on CAKI-1 renal, in the assay with KM12 colon, with M14 melanoma, in the assay with NCI-H460 lung, in the assay with TK-10 renal and in the assay on UACC-257 melanoma was > 100 µM throughout. In the assay with UO-31 renal, the TGI was > 100 µM.
`COc1ccc2[nH]c3cc4c(=O)c5cc(OC)ccc5[nH]c4cc3c(=O)c2c1`: the TGI in the assay on CAKI-1 renal, in the assay with KM12 colon, in the assay with M14 melanoma, with NCI-H460 lung, with PC-3 prostate and in the assay on SF-268 CNS was > 100 µM throughout. In addition, the TGI in the assay with TK-10 renal, in the assay on UACC-257 melanoma and in the assay on UO-31 renal was > 100 µM in each case.
`CCC(=O)OC1CCn2c1nc1c2C(=O)C(C)=C(NC(C)=O)C1=O` (stereo not given): the TGI was 3.61 µM in the assay with CAKI-1 renal; 3.89 µM in the assay with CCRF-CEM leukemia; 4.03 µM in the assay with KM12 colon; 3.32 µM in the assay with M14 melanoma; 14.1 µM in the assay with NCI-H460 lung; 3.2 µM with SF-268 CNS. Besides, the values for the TGI in the assay with TK-10 renal, in the assay with UACC-257 melanoma and in the assay on UO-31 renal were 17 µM, 3.15 µM and 4.73 µM, respectively.
For `CCOC(=O)/C=C/n1c2ccccc2c(=O)c2cc(OC)ccc21`, the TGI in the assay with CAKI-1 renal, in the assay with CCRF-CEM leukemia, in the assay with KM12 colon, with M14 melanoma, with NCI-H460 lung and with SF-268 CNS was > 100 µM in each case. The TGI with TK-10 renal, in the assay on UACC-257 melanoma and with UO-31 renal was > 100 µM each time.

Source of the values: PubChem BioAssay (NCI).
